From ChEMBL document CHEMBL1201862, “PubChem BioAssay data set” (2004)
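Briefly, cells in 96-well plates were exposed to five compound concentrations for 48 h, and endpoints were estimated by linear interpolation. GI50 is the concentration that inhibits growth by half.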 The source made the active and inactive calls. No stated cut-off is given here; in the data, active = GI50 up to about 1.1 µM and inactive = higher.

Columns and labels:
Assay in all cases: growth of human tumour cells (NCI), 48 h
786-0 = tested on: 786-0
ACHN = tested on: ACHN
BT-549 = tested on: BT-549
CCRF-CEM = tested on: CCRF-CEM
COLO 205 = tested on: COLO 205
DU-145 = tested on: DU-145
HCC 2998 = tested on: HCC 2998
K562 = tested on: K562
NCI-H460 = tested on: NCI-H460
OVCAR-3 = tested on: OVCAR-3
OVCAR-5 = tested on: OVCAR-5
PC-3 = tested on: PC-3
RXF 393 = tested on: RXF 393
SF-295 = tested on: SF-295
SNB-19 = tested on: SNB-19
SNB-75 = tested on: SNB-75
UACC-257 = tested on: UACC-257
UACC-62 = tested on: UACC-62
NCI-H226 = tested on: NCI-H226

| SMILES | GI50 (786-0) | GI50 (ACHN) | GI50 (BT-549) | GI50 (CCRF-CEM) | GI50 (COLO 205) | GI50 (DU-145) | GI50 (HCC 2998) | GI50 (K562) | GI50 (NCI-H460) | GI50 (OVCAR-3) | GI50 (OVCAR-5) | GI50 (PC-3) | GI50 (RXF 393) | GI50 (SF-295) | GI50 (SNB-19) | GI50 (SNB-75) | GI50 (UACC-257) | GI50 (UACC-62) | GI50 (NCI-H226) |
| --- | --- | --- | --- | --- | --- | --- | --- | --- | --- | --- | --- | --- | --- | --- | --- | --- | --- | --- | --- |
| CCOC(=O)CSC1NC(C(=O)OC)CC1OC (stereo not given) | > 100 µM (inactive) | > 100 µM (inactive) | > 100 µM (inactive) | 75 µM (inactive) | > 100 µM (inactive) | > 100 µM (inactive) | > 100 µM (inactive) | > 100 µM (inactive) | 67.6 µM (inactive) | > 100 µM (inactive) | > 100 µM (inactive) | > 100 µM (inactive) | > 100 µM (inactive) | > 100 µM (inactive) | > 100 µM (inactive) | > 100 µM (inactive) | > 100 µM (inactive) | > 100 µM (inactive) |  |
| Cc1cn(CC2=NCCCN2)c(=O)[nH]c1=O | > 100 µM (inactive) | > 100 µM (inactive) | > 100 µM (inactive) | > 100 µM (inactive) | > 100 µM (inactive) | > 100 µM (inactive) | > 100 µM (inactive) | > 100 µM (inactive) | > 100 µM (inactive) |  | > 100 µM (inactive) | > 100 µM (inactive) | > 100 µM (inactive) | > 100 µM (inactive) | > 100 µM (inactive) | > 100 µM (inactive) | > 100 µM (inactive) | > 100 µM (inactive) | > 100 µM (inactive) |
| O=[N+]([O-])c1ccc(C(c2c[nH]c3ccccc23)c2c[nH]c3ccccc23)cc1 | 14.3 µM (inactive) | 8.05 µM (inactive) | 4.97 µM (inactive) | 0.309 µM (active) | 8.13 µM (inactive) | 4.47 µM (inactive) | 13.2 µM (inactive) | 6.61 µM (inactive) | 3.57 µM (inactive) | 1.94 µM (inactive) | 23.6 µM (inactive) | 12.3 µM (inactive) |  | 22.6 µM (inactive) | 15.7 µM (inactive) | 4.8 µM (inactive) | 3.03 µM (inactive) | 10.5 µM (inactive) | 10.7 µM (inactive) |
| O=C(NCc1cccnc1)NCc1cccnc1 | > 100 µM (inactive) | > 100 µM (inactive) | > 100 µM (inactive) |  | > 100 µM (inactive) | > 100 µM (inactive) | > 100 µM (inactive) | > 100 µM (inactive) | > 100 µM (inactive) | > 100 µM (inactive) | > 100 µM (inactive) | > 100 µM (inactive) | > 100 µM (inactive) | > 100 µM (inactive) | > 100 µM (inactive) | > 100 µM (inactive) | > 100 µM (inactive) | > 100 µM (inactive) | 58.9 µM (inactive) |
| COc1ccc(-c2cc(-c3ccc(O)cc3O)c(C#N)c(=O)[nH]2)cc1 | 18.5 µM (inactive) | 43.2 µM (inactive) | 23.6 µM (inactive) | 23.9 µM (inactive) | 16.6 µM (inactive) | 40.6 µM (inactive) |  | 25.2 µM (inactive) | 23.1 µM (inactive) | 20.5 µM (inactive) | 18.6 µM (inactive) | 14.4 µM (inactive) | 15.9 µM (inactive) | 15.7 µM (inactive) | 21.9 µM (inactive) |  | 19.5 µM (inactive) | 15.8 µM (inactive) | 20.6 µM (inactive) |
| C[C@H]1C(=O)C2=C[C@H]1CCC(=O)[C@]1(C)CCCC(C)(C)[C@H]1C[C@H]2O | 17.1 µM (inactive) | 17.3 µM (inactive) | 28.2 µM (inactive) | 15.8 µM (inactive) | 14.3 µM (inactive) | 28.2 µM (inactive) |  | 12.4 µM (inactive) | 21.9 µM (inactive) | 29.2 µM (inactive) | 25.4 µM (inactive) | 33.3 µM (inactive) | 11.5 µM (inactive) | 33.3 µM (inactive) | > 100 µM (inactive) | 16.7 µM (inactive) | 32.3 µM (inactive) | 36.5 µM (inactive) | 19.7 µM (inactive) |
| Nc1ncn2c(n1)nc1ccccc12 | > 100 µM (inactive) | > 100 µM (inactive) | > 100 µM (inactive) | > 100 µM (inactive) | > 100 µM (inactive) | > 100 µM (inactive) |  | > 100 µM (inactive) | > 100 µM (inactive) |  | > 100 µM (inactive) | > 100 µM (inactive) | 18.6 µM (inactive) | > 100 µM (inactive) | > 100 µM (inactive) | 3.51 µM (inactive) | > 100 µM (inactive) | > 100 µM (inactive) | > 100 µM (inactive) |
| CC1=NN(c2ccccc2)C(=O)C1/N=N/c1ccc(S(N)(=O)=O)cc1 (stereo not given) | > 100 µM (inactive) | > 100 µM (inactive) | > 100 µM (inactive) | > 100 µM (inactive) | > 100 µM (inactive) | > 100 µM (inactive) |  | > 100 µM (inactive) | > 100 µM (inactive) | > 100 µM (inactive) | > 100 µM (inactive) | > 100 µM (inactive) | > 100 µM (inactive) | > 100 µM (inactive) | > 100 µM (inactive) | > 100 µM (inactive) | > 100 µM (inactive) | > 100 µM (inactive) | > 100 µM (inactive) |
| COC(=O)c1sc2c(=O)c(C(=O)OC)c(C(=O)OC)sc2c(=O)c1C(=O)OC | > 100 µM (inactive) | > 100 µM (inactive) | > 100 µM (inactive) |  | > 100 µM (inactive) | > 100 µM (inactive) | > 100 µM (inactive) | 43.2 µM (inactive) | > 100 µM (inactive) | > 100 µM (inactive) | > 100 µM (inactive) | > 100 µM (inactive) | > 100 µM (inactive) | > 100 µM (inactive) | > 100 µM (inactive) | > 100 µM (inactive) | > 100 µM (inactive) | > 100 µM (inactive) | > 100 µM (inactive) |
| O=C1CSC2(CC(/C=C/c3cccs3)=NN2c2cccc(S(=O)(=O)O)c2)N1c1nc2ccccc2s1 (stereo not given) | 88.3 µM (inactive) | 68.9 µM (inactive) | 11.9 µM (inactive) | 33 µM (inactive) | > 100 µM (inactive) | > 100 µM (inactive) | > 100 µM (inactive) | 49.4 µM (inactive) | 67.5 µM (inactive) |  | > 100 µM (inactive) | > 100 µM (inactive) | > 100 µM (inactive) |  | > 100 µM (inactive) | > 100 µM (inactive) | > 100 µM (inactive) | 49.4 µM (inactive) | 39.9 µM (inactive) |
| COc1cc2c(cc1OCCCCCOc1cc3c(cc1OC)C(=O)N1CCC[C@H]1CN3)N=C[C@@H]1CCCN1C2=O | 3.94 µM (inactive) | 4.03 µM (inactive) | 2.66 µM (inactive) | 0.233 µM (active) | 4.37 µM (inactive) | 11.1 µM (inactive) |  | 3.49 µM (inactive) | 3.77 µM (inactive) | 12.6 µM (inactive) | 16.9 µM (inactive) | 10.1 µM (inactive) | 17 µM (inactive) | 6.14 µM (inactive) | 20 µM (inactive) | 15 µM (inactive) | 12.3 µM (inactive) | 1.56 µM (inactive) | 2.48 µM (inactive) |
